pIC50: −log10 of the molar value.
Experiments:
[1] = tested on: Balb/c mice; assay: Carrageenan air pouch model of acute inflammation, PGE2 release in vivo; conditions: 50 mg/kg i.p. twice before carrageenan challenge; 4 hours after challenge; FIG. 6
Description: The effects of compound D-58 on PGE2 release in vivo were examined using a well characterized air pouch mouse model of acute inflammation (ref 36). An acute inflammatory response was induced in the air pouches of mice by the injection of carrageenan, a sulfated polysaccharide obtained from the alga Chondrus crispus (ref 36).
Balb/c (6-8 weeks old male) mice were utilized for these experiments. To create an air pouch, mice were injected with 3 ml sterile air subcutaneously using a 30 gauge needle on days 0 and 3 as described previously (refs 30 and 31). Six days after the initial injection of air, mice were injected with 2 ml of 1% carrageenan into the subcutaneous air pouch.
In order to study the effect of compound D-58, a group of mice was injected with the drug i.p. 60 minutes and 30 minutes before the carrageenan challenge. Control mice were treated with vehicle alone. After 4 hours of challenge with carrageenan, mice were sacrificed and the contents of the air pouches were harvested by lavage with 2 ml cold saline. The recovered fluids were centrifuged at 250×g for 15 minutes at 4° C. Supernatants were saved at −80° C. for the estimation the of prostaglandin E2 contents. […]
The data points represent the mean±SEM values (n=4-5 mice). *p<0.05 compared to vehicle-treated controls was determined by Student's t test.

[2] = target: T1, SYK (Homo sapiens, UniProt P43405); assay: SYK tyrosine kinase assay; format: biochemical; conditions: 1 hour exposure
T1 construct: made in house; host or cells: Sf21 insect cells (baculovirus)
Description: Sf21 (IPLB-SF21-AE) cells derived from the ovarian tissue of the fall armyworm Spodotera frugiperda, were obtained from Invitrogen and maintained at 26-28° C. in Grace's insect cell medium supplemented with 10% FBS and 1.0% antibiotic/antimycotic (GIBCO-BRL). Stock cells were maintained in suspension at 0.2-1.6×10^6/ml in 600 ml total culture volume in 1 L Bellco spinner flasks at 60-90 rpm. Cell viability was maintained at 95-100% as determined by trypan blue dye exclusion.
Sf21 cells were infected with a baculovirus expression vector for BTK or SYK, as previously described (refs 18 and 19). […]
Following electrophoresis, kinase gels were dried onto Whatman 3M filter paper and subjected to phosphoimaging on a Molecular Imager (Bio-Rad, Hercules, Calif.) as well as autoradiography on film. […] For each drug concentration, a BTK or SYK kinase activity index was determined by comparing the ratios of the kinase activity in phosphorimager units (PIU) and density of the protein bands in densitometric scanning units (DSU) to those of the baseline sample and using the formula: Activity Index=[PIU of kinase band/DSU of BTK/SYK protein band]test sample: [PIU of kinase band/DSU of BTK/SYK protein band]baseline control sample.

[3] = target: T2, Src family tyrosine kinase HCK (Homo sapiens, UniProt P08631); assay: HCK kinase assay (immunoprecipitated from HCK-transfected COS-7 cells); format: biochemical; conditions: FIG. 1C; 1 hour exposure
T2 construct: expressed in transfected cells; host or cells: COS-7 cells transfected with pSV7c-HCK; immunoprecipitated with anti-HCK antibody
Description: For HCK kinase assays, HCK-transfected COS-7 cells were used. The cloning and expression of HCK in COS-7 cells has been described previously (ref 18). The pSV7c-HCK plasmid was transfected into 2×10^6 COS-7 cells using Lipofectamine (GIBCO/BRL), and the cells were harvested 48 hours later. The cells were lysed in NP-40 buffer and HCK was immunoprecipitated from the whole cell lysates with an anti-HCK antibody. Kinase assays were performed following a 1 hour exposure of the purified (BTK, SYK) or immunoprecipitated (HCK) tyrosine kinases to the test compound, as described in detail elsewhere (refs 18-22). Following electrophoresis, kinase gels were dried onto Whatman 3M filter paper and subjected to phosphoimaging on a Molecular Imager (Bio-Rad, Hercules, Calif.) as well as autoradiography on film. […] For each drug concentration, a BTK or SYK kinase activity index was determined by comparing the ratios of the kinase activity in phosphorimager units (PIU) and density of the protein bands in densitometric scanning units (DSU) to those of the baseline sample and using the formula: Activity Index=[PIU of kinase band/DSU of BTK/SYK protein band]test sample: [PIU of kinase band/DSU of BTK/SYK protein band]baseline control sample.

[4] = tested on: skh-1 mice; assay: Histological studies of UVB-irradiated skin; format: in vivo
Description: After mice from Example 7 were sacrificed electively, a skin specimen was removed and spread on a sheet of dental wax. An 8 mm^2 biopsy punch was taken and fixed in buffered formalin. 4-5 μm thick sections were cut from paraffin blocks. In order to study the histopathological changes in skin following UVB exposure, the tissue sections were stained with hematoxylin and eosin and the stained slides were examined microscopically.
The effects of compound D-58 on UVB-induced histological changes in skin were examined and the results are illustrated in the 40× magnifications of FIGS. 8A-8C. The normal epidermis typically has a 2-3 cell layer and contains scattered inflammatory cells especially around hair follicles (FIG. 8A). […] Large numbers of neutrophils also were accumulated in the dermis (FIG. 8B). In contrast, the skin of mice treated with compound D-58 looked very much like the skin of unirradiated controls (FIG. 8C), with 1-2 cell layers of epidermis and normal dermis.

T2 sequence (P08631 whole entry): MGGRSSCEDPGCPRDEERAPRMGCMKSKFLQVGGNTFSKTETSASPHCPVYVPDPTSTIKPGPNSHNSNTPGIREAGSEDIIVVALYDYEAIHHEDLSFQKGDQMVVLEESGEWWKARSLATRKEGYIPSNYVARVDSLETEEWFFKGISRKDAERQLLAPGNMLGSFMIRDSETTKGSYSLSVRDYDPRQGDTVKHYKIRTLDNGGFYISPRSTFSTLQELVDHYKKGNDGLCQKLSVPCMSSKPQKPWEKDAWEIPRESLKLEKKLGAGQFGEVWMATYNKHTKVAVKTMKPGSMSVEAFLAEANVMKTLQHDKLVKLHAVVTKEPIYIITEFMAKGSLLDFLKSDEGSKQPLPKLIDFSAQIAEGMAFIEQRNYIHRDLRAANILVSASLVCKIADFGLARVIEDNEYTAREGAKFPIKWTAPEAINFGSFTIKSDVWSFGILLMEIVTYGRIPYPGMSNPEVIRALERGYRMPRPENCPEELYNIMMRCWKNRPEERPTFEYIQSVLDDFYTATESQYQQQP

COc1ccc(CC(=O)c2c(O)cc(O)cc2O)cc1 [Compound D-58]
decrease of PGE2 release into the air pouch [1]: approximately 50% | pIC50 ([2]; first experiment, FIG. 1B): 4.43 | pIC50 ([2]; second experiment, FIG. 1C): > 5.00 | pIC50 [3]: < 3.70 | cell layers of epidermis ([4]; UVB-irradiated skin of treated mice, FIG. 8C, UVB-irradiated untreated 3-5, normal 2-3): 1-2 | edema and neutrophil influx in UVB irradiated skin ([4]; histology, hematoxylin and eosin): prevented the development of edema and neutrophil influx

— patent publication US6391921B1 (priority 2000, dated 2002)
